Laboratory results from ChEMBL document CHEMBL3044968, “N-palmitoylethanolamide derivatives: synthesis and studies on anticonvulsant and antidepressant activities” (Med Chem Res, 2011).
The source made the active and inactive calls. No cut-off for these calls is given here.

Key:
Mus musculus [1] = assay: Anticonvulsant activity in Mus musculus Kunming (mouse) assessed as protection against maximal electroshock-induced seizure at 300 mg/kg, ip measured after 30 min; format: functional, organism-based; set-up: dose 300 mg/kg
Mus musculus [2] = assay: Neurotoxicity in Mus musculus Kunming (mouse) at 300 mg/kg, ip measured after 4 hr by rotarod test; format: toxicity, organism-based; set-up: dose 300 mg/kg, route intraperitoneal; settings: in vivo
Mus musculus [3] = assay: Neurotoxicity in Mus musculus Kunming (mouse) at 100 mg/kg, ip measured after 30 min by rotarod test; format: toxicity, organism-based; set-up: dose 100 mg/kg, route intraperitoneal; settings: in vivo, 0.5 h
Mus musculus [4] = assay: Neurotoxicity in Mus musculus Kunming (mouse) at 300 mg/kg, ip measured after 30 min by rotarod test; format: toxicity, organism-based; set-up: dose 300 mg/kg, route intraperitoneal; settings: in vivo, 0.5 h
Mus musculus [5] = assay: Neurotoxicity in Mus musculus Kunming (mouse) at 30 mg/kg, ip measured after 4 hr by rotarod test; format: toxicity, organism-based; set-up: dose 30 mg/kg, route intraperitoneal; settings: in vivo
Mus musculus [6] = assay: Neurotoxicity in Mus musculus Kunming (mouse) at 100 mg/kg, ip measured after 4 hr by rotarod test; format: toxicity, organism-based; set-up: dose 100 mg/kg, route intraperitoneal; settings: in vivo
Mus musculus [7] = assay: Anticonvulsant activity in Mus musculus Kunming (mouse) assessed as protection against maximal electroshock-induced seizure at 100 mg/kg, ip measured after 4 hr; format: functional, organism-based; set-up: dose 100 mg/kg
Mus musculus [8] = assay: Anticonvulsant activity in Mus musculus Kunming (mouse) assessed as protection against maximal electroshock-induced seizure at 300 mg/kg, ip measured after 4 hr; format: functional, organism-based; set-up: dose 300 mg/kg
Mus musculus [9] = assay: Neurotoxicity in Mus musculus Kunming (mouse) at 30 mg/kg, ip measured after 30 min by rotarod test; format: toxicity, organism-based; set-up: dose 30 mg/kg, route intraperitoneal; settings: in vivo, 0.5 h
Mus musculus [10] = assay: Anticonvulsant activity in Mus musculus Kunming (mouse) assessed as protection against maximal electroshock-induced seizure at 100 mg/kg, ip measured after 30 min; format: functional, organism-based; set-up: dose 100 mg/kg
Mus musculus [11] = assay: Antidepressant activity in Mus musculus Kunming (mouse) assessed as reduction in duration of immobility at 10 mg/kg, ip measured after 30 min by forced swim test; format: functional; settings: 0.5 h, route intraperitoneal
Mus musculus [12] = assay: Anticonvulsant activity in Mus musculus Kunming (mouse) assessed as protection against maximal electroshock-induced seizure at 30 mg/kg, ip measured after 30 min; format: functional, organism-based; set-up: dose 30 mg/kg
Mus musculus [13] = assay: Anticonvulsant activity in Mus musculus Kunming (mouse) assessed as protection against maximal electroshock-induced seizure at 30 mg/kg, ip measured after 4 hr; format: functional, organism-based; set-up: dose 30 mg/kg

SMILES | Activity (Mus musculus [1]) | Activity (Mus musculus [2]) | Activity (Mus musculus [3]) | Activity (Mus musculus [4]) | Activity (Mus musculus [5]) | Activity (Mus musculus [6]) | Activity (Mus musculus [7]) | Activity (Mus musculus [8]) | Activity (Mus musculus [9]) | Activity (Mus musculus [10]) | inhibition in vivo at 10 mg/kg (Mus musculus [11]) | Activity (Mus musculus [12]) | Activity (Mus musculus [13])
CCCCCCCCCCCCCCCC(=O)N(CCO)CCO | inactive | Non-toxic | Non-toxic | Non-toxic | Non-toxic | Non-toxic | inactive | inactive | Non-toxic | inactive | 26.3% | inactive | inactive
CCCCCCCCCCCCCCCCCC(=O)NCCCO | inactive | Non-toxic | Non-toxic | Non-toxic | Non-toxic | Non-toxic | inactive | inactive | Non-toxic | inactive | 14.1% | inactive | inactive
CCCCCCCCCCCCCCCCCC(=O)N(C)CCO | inactive | Non-toxic | Non-toxic | Non-toxic | Non-toxic | Non-toxic | inactive | inactive | Non-toxic | inactive | 22% | inactive | inactive
O=C(/C=C/c1ccccc1)NCCCO |  | Non-toxic | Non-toxic | Toxic | Non-toxic | Non-toxic | inactive | inactive | Non-toxic | inactive | 23.4% | inactive | inactive
CN(CCO)C(=O)/C=C/c1ccccc1 | Active | Non-toxic | Non-toxic | Toxic | Non-toxic | Non-toxic | inactive |  | Non-toxic |  | 8.41% | inactive | inactive
CNCCC(Oc1ccc(C(F)(F)F)cc1)c1ccccc1 (stereo not given) [FLUOXETINE] |  |  |  |  |  |  |  |  |  |  | 39.4% |  | 
CCCCCCCCCCCCCCCC(=O)N(CC)CC [HEXADECANOIC ACID DIETHYLAMIDE] | inactive | Non-toxic | Non-toxic | Non-toxic | Non-toxic | Non-toxic | inactive | inactive | Non-toxic | inactive | 17.3% | inactive | inactive
O=C(/C=C/c1ccccc1)NCCO [IDROCILAMIDE] | Active | Non-toxic | Non-toxic | Toxic | Non-toxic | Non-toxic | inactive | inactive | Non-toxic | Active | 25.9% | Active | inactive
CCN(CC)C(=O)/C=C/c1ccccc1 [N,N-DIETHYLCINNAMAMIDE] | Active | Non-toxic | Non-toxic | Toxic | Non-toxic | Non-toxic |  |  | Non-toxic |  | 18.2% | inactive | inactive
CCCCCCCCCCCCCCCCCC(=O)N(CC)CC [N,N-DIETHYLSTEARAMIDE] | inactive | Non-toxic | Non-toxic | Non-toxic | Non-toxic | Non-toxic | inactive | inactive | Non-toxic | inactive | 18.4% | inactive | inactive
CN(C)C(=O)/C=C/c1ccccc1 [N,N-DIMETHYLCINNAMAMIDE] | Active | Non-toxic | Non-toxic | Toxic | Non-toxic | Non-toxic |  |  | Non-toxic |  | 20% | inactive | inactive
CCCCCCCCCCCCCCCCCC(=O)NCCO [N-(2-HYDROXYETHYL)STEARAMIDE] | Active | Non-toxic | Non-toxic | Non-toxic | Non-toxic | Non-toxic | inactive | inactive | Non-toxic | Active | 5.65% | Active | inactive
CCCCCCCCCCCCCCCC(=O)NCCCO [N-(3-HYDROXYPROPYL)PALMITAMIDE] | inactive | Non-toxic | Non-toxic | Non-toxic | Non-toxic | Non-toxic | inactive | inactive | Non-toxic | inactive | 22.2% | inactive | inactive
CCCCCCCCCCCCCCCC(=O)NCCO [PALMIDROL] | Active | Non-toxic | Non-toxic | Non-toxic | Non-toxic | Non-toxic | inactive | inactive | Non-toxic | Active | 6.25% |  | inactive
